According to the OligoGym collection:
Several values for one entry are separate records, joined by “and”; a condition that tells them apart may be missing. Equal entries are not always repeated. After the bases stand the sugars from the 5' end (letter, count) and the backbone: PS all phosphorothioate, else s phosphorothioate and o phosphodiester by linkage. Methylation of C is not given here. e = 2'-O-(2-methoxyethyl) (MOE); k = constrained ethyl (cEt); d = 2'-deoxy (DNA)

Target: IRF4
Conditions: ASO

Row | Sequence | target mRNA inhibition (MM.1R, 1 µM) | target mRNA inhibition (SK-MEL-28, 4 µM) | other results
1 | GAAGCATTTTATCATC (sugars e1 k2 d9 k2 e2, PS) | 1% | – | –
2 | GAAGCATTTTATCATC (sugars k2 d9 e3 k2, PS) | 9% | – | –
3 | GAAGGCCTGAGTTACC (sugars k3 d10 k3, PS) | 29% | – | –
4 | GAAGGGAACAGATAGT (sugars k3 d10 k3, PS) | – | 17% | –
5 | GAAGTTTACACTGGAT (sugars kkdddddddddekeke, PS) | 58% | – | target mRNA inhibition (MM.1R, 0.074 µM): 14%; target mRNA inhibition (MM.1R, 0.222 µM): 26%; target mRNA inhibition (MM.1R, 0.666 µM): 50%; target mRNA inhibition (MM.1R, 2 µM): 59%
6 | GAAGTTTACACTGGAT (sugars kkkdddddddddkeke, PS) | 49% | – | –
7 | GAAGTTTACTAACTGG (sugars k3 d10 k3, PS) | – | 57% | –
8 | GAATCTTGGCAGGGAG (sugars k3 d10 k3, PS) | 0% | – | –
9 | GAATTCCAAACCTTAA (sugars k3 d10 k3, PS) | 4% | – | –
10 | GAATTTACAGCATCTA (sugars k3 d10 k3, PS) | – | 76% | –
11 | GACAAGAACTGCTGTG (sugars k3 d10 k3, PS) | – | 15% | –
12 | GACAATGTTGTATGAA (sugars k3 d10 k3, PS) | – | 72% | –
13 | GACACTTTTAGAGAGG (sugars k2 d9 e3 k2, PS) | 25% | – | –
14 | GACACTTTTAGAGAGG (sugars kddddddddddkekek, PS) | 23% | – | –
15 | GACACTTTTAGAGAGG (sugars kdddddddddkekeke, PS) | 9% | – | –
16 | GACACTTTTAGAGAGG (sugars kkddddddddddkeke, PS) | 9% | – | –
17 | GACACTTTTAGAGAGG (sugars kkdddddddddkdkdk, PS) | 14% | – | –
18 | GACAGTGACTTGCATC (sugars kkdddddddddkekek, PS) | 5% | – | –
19 | GACATTGGTACGGGAT (sugars k3 d10 k3, PS) | – | 36% | –
20 | GACCAACTGGAAAACC (sugars k3 d10 k3, PS) | – | 56% | –
21 | GACCAATTTATGCCAT (sugars k3 d10 k3, PS) | – | 38% | –
22 | GACCCACACCAGGAAA (sugars k3 d10 k3, PS) | – | 2% | –
23 | GACCTAACTAAATGTC (sugars k3 d10 k3, PS) | – | -18% | –
24 | GACGGAGGCGGCAGAC (sugars k3 d10 k3, PS) | – | -43% | –
25 | GACTAACAGGGAGACT (sugars k3 d10 k3, PS) | – | -9% | –
26 | GACTCCATGAGGTTTT (sugars k3 d10 k3, PS) | – | 70% | target mRNA inhibition (SK-MEL-28, 0.185 µM): 14% and 10% and 1%; target mRNA inhibition (SK-MEL-28, 5 µM): 58% and 55% and 77%; target mRNA inhibition (SK-MEL-28, 15 µM): 76% and 78% and 87%
27 | GACTCGGAGCTGAGGG (sugars k3 d10 k3, PS) | – | 23% | –

Row | Sequence | target mRNA inhibition (MM.1R, 1 µM) | target mRNA inhibition (SK-MEL-28, 4 µM) | other results
28 | GACTTAAGCTAAACTC (sugars k3 d10 k3, PS) | – | 58% | –
29 | GACTTATTTGTGGCTC (sugars k3 d10 k3, PS) | 20% | – | –
30 | GAGAAAACCCCCCTCT (sugars k3 d10 k3, PS) | – | 17% | –
31 | GAGAAACGAGCCAGTG (sugars k3 d10 k3, PS) | – | 39% | –
32 | GAGAAGCATATTCCAA (sugars k3 d10 k3, PS) | – | 57% | –
33 | GAGACCTACAAAATGC (sugars k3 d10 k3, PS) | – | 11% | –
34 | GAGAGACGAAAACAGC (sugars k3 d10 k3, PS) | 5% | – | –
35 | GAGCAAACCCTGCACT (sugars k3 d10 k3, PS) | – | -16% | –
36 | GAGCAAAGCAAGTGTC (sugars k3 d10 k3, PS) | – | 42% | –
37 | GAGCAATGAACGGAAG (sugars k3 d10 k3, PS) | – | 72% | –
38 | GAGCACTGCATGAAAG (sugars k3 d10 k3, PS) | – | 51% | –
39 | GAGCAGTAAACGCAAG (sugars k3 d10 k3, PS) | – | 54% | –
40 | GAGCATCAACAAAGCC (sugars k3 d10 k3, PS) | – | 58% | –
41 | GAGCATCCGCTTGGAG (sugars k3 d10 k3, PS) | – | 31% | –
42 | GAGCCAGAGCAGTAAA (sugars k3 d10 k3, PS) | -2% | – | –
43 | GAGCTGTGATGAGCTT (sugars k4 d8 k4, PS) | – | 5% | –
44 | GAGGAAGCCGTTCCTT (sugars k3 d10 k3, PS) | – | 51% | –
45 | GAGGAAGTCCCCTTCC (sugars k3 d10 k3, PS) | 4% | – | –
46 | GAGGAATGGCGGATAG (sugars k3 d10 k3, PS) | – | 31% | –
47 | GAGGAGGAGGACTTAT (sugars k3 d10 k3, PS) | – | 51% | –
48 | GAGGGTCAAAAAGATG (sugars k3 d10 k3, PS) | – | 33% | –
49 | GAGTCACCTGGAATCT (sugars k3 d10 k3, PS) | – | 43% | –
50 | GAGTCCCCGGCTCCTC (sugars k3 d10 k3, PS) | – | 25% | –
51 | GAGTCTTTGAGGCTGC (sugars k3 d10 k3, PS) | – | 34% | –
52 | GAGTGAGATGCGGAGG (sugars k3 d10 k3, PS) | – | – | target mRNA inhibition (MM.1R, 0.0625 µM): 6%; target mRNA inhibition (MM.1R, 0.25 µM): 0%; target mRNA inhibition (MM.1R, 4 µM): 67%
53 | GATAAAGGCTGAACTG (sugars k3 d10 k3, PS) | – | 67% | –
54 | GATAATATACCCCAAA (sugars k3 d10 k3, PS) | – | 33% | –
